Experiments:
[1] = tested on: primary cortical neurons from normal mouse embryos; test: Secreted Aβ by ELISA in primary cortical neuronal cultures; format: cell-based
Experimental: We have confirmed this effect of the autophagy inhibitor 3MA on Aβ production in primary cortical neuronal cultures derived from normal mouse embryos (FIG. 11). Following a media change, cultures were incubated in the presence or absence of 3MA for six hours. […] Dissected embryonic cortical tissue from Sprague-Dawley rat embryos (18d gestation) or mouse embryos (17d gestation) is rinsed with calcium/magnesium-free Hanks buffered saline solution and resuspended in 5.0 ml 0.125% trypsin and 0.5 mM EDTA at 37° C. […] Trypsin is quenched and the cells are plated at 1.5×10^6 cells/mL on polylysine coated plates and cultured at 37° C. in 5% CO2 in B27/Neurobasal medium (Gibco/BRL, Gaithersburg, Md.) containing 0.0015% fluorodeoxyuridine (FUDR), giving cultures that are >95% neuronal. For the Aβ sandwich ELISA, Nunc-Immuno Plates (Nunc A/S, Roskilde, Denmark) were coated overnight using 4° C. using antibodies specific for Aβ40 or Aβ42 in 100 mM bicarbonate buffer, pH 9.6. […] Immediately prior to being loaded on the ELISA, 1 ml of the brain homogenate was extracted in diethylamine (Sigma, St. Lousi, Minn.) by adding an equal volume of 0.4% DEA in 100 mM NaCl, re-homogenized and centrifuged for 1 hour at 100,000×g. […] Alternatively, conditioned media collected from cells was loaded neat and 1:2. Aβ-40 and Aβ-42 peptide standards were purchased from American Peptide Co. (Sunnyvale, Calif.), stored at −70° C., and diluted in EC buffer immediately prior to use. ELISA plates were incubated overnight with 4° C. with samples and standards. Aβ was detected by incubating for 4 hours at room temperature with an HRP-conjugated anti-Aβ antibody in 20 mM Na phosphate, 2 mM EDTA, 400 mM Nacl, 1.0% BSA. ELISA plates were developed using a color reaction (ABTS Peroxide Substrate System, Kirkegaard & Perry, Gaithersburg, Md.) and the OD450 read.

[2] = tested on: N2a cells expressing APPswe/PS1 wt; test: Secreted Aβ in conditioned medium by ELISA; format: cell-based, murine
Experimental: (§1) In a second set of experiments, N2a cells expressing APPswe/PS1 wt or APPswe/PS1Δ9 were incubated either in the presence or absence of 5 mM 3MA (FIG. 10B). Conditioned medium was collected and pooled from two plates and spun at 1000×g to remove cells and cellular debris. The amount of secreted Aβ was then determined using ELISA. In both APPswe/PS1 wt and APPswe/PS1 Δ9 N2A cells incubated in the presence of 3MA, there was a reduction of Aβ1-40 and Aβ1-42 in the conditioned medium (FIG. 10B). While the decrease was greatest in the N2A cells expressing mutant PS1, we found a significant decrease of approximately 20% or great for both Aβ species in both the wild-type and Δ9 PS1 expressing lines.
(§2) For the Aβ sandwich ELISA, Nunc-Immuno Plates (Nunc A/S, Roskilde, Denmark) were coated overnight using 4° C. using antibodies specific for Aβ40 or Aβ42 in 100 mM bicarbonate buffer, pH 9.6. Remaining protein binding sites were blocked by incubating with 1% Block Ace (Yukijirushi Milk, Sapporo Japan) in PBS for 4 hours at room temperature. 10% (w/v) homogenates were prepared from a hemibrain in 20 MM Tris, 250 mM sucrose, 1 mM EDTA, 1 mM EGTA, protease inhibitors, pH 7.4, and stored frozen at −70° C. Immediately prior to being loaded on the ELISA, 1 ml of the brain homogenate was extracted in diethylamine (Sigma, St. Lousi, Minn.) by adding an equal volume of 0.4% DEA in 100 mM NaCl, re-homogenized and centrifuged for 1 hour at 100,000×g. The supernatant was collected, neutralized with 0.1 volume 0.5 M Tris, pH 6.8, and loaded in duplicate wells both neat and diluted 1:2 in EC buffer (20 mM Na phosphate, 2 mM EDTA, 400 mM NaCl, 0.2% BSA, 0.4% Block Ace, 0.95% CHAPS). […] Alternatively, conditioned media collected from cells was loaded neat and 1:2. Aβ-40 and Aβ-42 peptide standards were purchased from American Peptide Co. (Sunnyvale, Calif.), stored at −70° C., and diluted in EC buffer immediately prior to use. ELISA plates were incubated overnight with 4° C. with samples and standards. Aβ was detected by incubating for 4 hours at room temperature with an HRP-conjugated anti-Aβ antibody in 20 mM Na phosphate, 2 mM EDTA, 400 mM Nacl, 1.0% BSA. ELISA plates were developed using a color reaction (ABTS Peroxide Substrate System, Kirkegaard & Perry, Gaithersburg, Md.) and the OD450 read.

[3] = tested on: N2a cells expressing APPswe/PS1Δ9; test: Secreted Aβ in conditioned medium by ELISA; format: cell-based, murine; details: 5 mM 3MA, FIG. 10B
Experimental: as §1, §2

[4] = tested on: N2a cells expressing APPswe/PS1Δ9; test: Tau protein levels by Western blot; format: cell-based, murine; details: for increase in tau protein levels: FIG. 10C; for tau protein levels (Western blot): figure legend FIG. 10C
Experimental: There are numerous assays for tau known in the art. For example, the processing of tau by immunocytochemistry and Western blot analysis is performed using an antibody that recognizes both phosphorylated and non-phosphorylated forms (Adamec et al., Brain Res. 757:93–101, 1997). Abnormal tau conformation and byperphosphorylated tau is examined using suitable monoclonal antibodies (e.g., MC1 (Jicha et al., J. Neurosci. Res. 48:128–132) and AT8 (Innogenetics, Gent, Belgium)). EM analysis can be performed to characterize cytoskeletal changes in neurons (Nixon, Bioessays 20:798–807, 1998).

[5] = tested on: N2a cells expressing APPswe/PS1 wt; test: Aβ secretion, metabolic labeling and anti-Aβ immunoprecipitation, SDS-PAGE/fluorography; format: cell-based, murine
Description: (§3) Cells were then metabolically labeled for four hours, again in the absence or presence of autophagy inhibitors. The growth medium was collected and subjected to immunoprecipitation with an anti-Aβ monoclonal antibody that recognizes both Aβ1-40 and Aβ1-42. Labeled Aβ was resolved by SDS-PAGE and fluorography (FIG. 10A).

[6] = tested on: N2a cells expressing APPswe/PS1Δ9; test: as above; format: cell-based, murine
Description: as §3

[7] = six hours incubation, ELISA, FIG. 11
[8] = 10 mM inhibitor (leucine and histidine 10 mM each), four hours metabolic labeling, growth medium, FIG. 10A top panel
[9] = 10 mM inhibitor, C-terminal antibody, FIG. 10A bottom panel

Structure (SMILES) | Aβ secretion into the media ([1]; figure legend FIG. 11) | reduction of Aβ40 secreted into the media [1, 7] | reduction of Aβ42 secreted into the media [1, 7] | decrease of Aβ1-40 in conditioned medium ([2]; 5 mM 3MA, ELISA, FIG. 10B) | decrease of Aβ1-42 in conditioned medium ([2]; 5 mM 3MA, ELISA, FIG. 10B) | Aβ secretion into the growth media (ELISA) ([2]; figure legend FIG. 10B, N2a cells, both lines shown) | decrease of Aβ1-40 in conditioned medium [3] | decrease of Aβ1-42 in conditioned medium [3] | increase in tau protein levels ([4]; 3MA-treated, concentration not given) | tau protein levels (Western blot) [4] | amount of Aβ secreted [5, 8] | amount of full-length APP immunoprecipitated from cell lysates [5, 9] | Aβ generation (autoradiograph) ([5]; figure legend FIG. 10A, neuroblastoma cells, both lines shown) | amount of Aβ secreted [6, 8] | amount of full-length APP immunoprecipitated from cell lysates [6, 9] | increase in tau protein levels ([4]; vinblastine 50 μM)
Cn1cnc(N)c2ncnc1-2 [3MA, 3-methyladenine] | reduction | approximately 20% | approximately 20% | ≥ 20% | ≥ 20% | decreased | ≥ 20% | ≥ 20% | approximately 2 times | increased | reduced | did not affect | decreased | reduced | did not affect | 
CC[C@]1(O)C[C@@H]2CN(CCc3c([nH]c4ccccc34)[C@@](C(=O)OC)(c3cc4c(cc3OC)N(C)[C@H]3[C@@](O)(C(=O)OC)[C@H](OC(C)=O)[C@]5(CC)C=CCN6CC[C@]43[C@@H]65)C2)C1 [vinblastine] |  |  |  |  |  |  |  |  |  | increased |  |  |  |  |  | ~2.5 times

Reference: patent US7090987B1, “Methods for the identification of compounds for the treatment of neuronal atrophy-associated dementia” (priority 1999, dated 2006)
